Reference: the supplement of paper PMC13380429

Columns and labels:
Conditions in all cases: 72 h
HepG2 [1] = assay: cell viability relative to DMSO; higher = less toxic
Calu-3 [2] = assay: as above
Vero E6 [3] = assay: as above
Caco-2 [4] = assay: as above
U2OS [5] = assay: as above
HepG2 [6] = assay: relative viability EC50 (midpoint between 100% and the lowest measured viability); higher = less toxic
Calu-3 [7] = assay: as above
Vero E6 [8] = assay: as above
Caco-2 [9] = assay: as above
U2OS [10] = assay: as above
HepG2 [11] = assay: drug sensitivity score (DSS) for viability; higher = more toxic; extreme values may be limits of the assay
Calu-3 [12] = assay: as above
Vero E6 [13] = assay: as above
Caco-2 [14] = assay: as above
U2OS [15] = assay: as above

| Structure (SMILES) | cell viability (HepG2 [1]; 1 nM) | cell viability (HepG2 [1]; 10 nM) | cell viability (HepG2 [1]; 100 nM) | cell viability (HepG2 [1]; 1000 nM) | cell viability (HepG2 [1]; 10000 nM) | cell viability (Calu-3 [2]; 1 nM) | cell viability (Calu-3 [2]; 10 nM) | cell viability (Calu-3 [2]; 100 nM) | cell viability (Calu-3 [2]; 1000 nM) | cell viability (Calu-3 [2]; 10000 nM) | cell viability (Vero E6 [3]; 1 nM) | cell viability (Vero E6 [3]; 10 nM) | cell viability (Vero E6 [3]; 100 nM) | cell viability (Vero E6 [3]; 1000 nM) | cell viability (Vero E6 [3]; 10000 nM) | cell viability (Caco-2 [4]; 1 nM) | cell viability (Caco-2 [4]; 10 nM) | cell viability (Caco-2 [4]; 100 nM) | cell viability (Caco-2 [4]; 1000 nM) | cell viability (Caco-2 [4]; 10000 nM) | cell viability (U2OS [5]; 1 nM) | cell viability (U2OS [5]; 10 nM) | cell viability (U2OS [5]; 100 nM) | cell viability (U2OS [5]; 1000 nM) | cell viability (U2OS [5]; 10000 nM) | relative viability EC50 (HepG2 [6]) | relative viability EC50 (Calu-3 [7]) | relative viability EC50 (Vero E6 [8]) | relative viability EC50 (Caco-2 [9]) | relative viability EC50 (U2OS [10]) | drug sensitivity score (HepG2 [11]) | drug sensitivity score (Calu-3 [12]) | drug sensitivity score (Vero E6 [13]) | drug sensitivity score (Caco-2 [14]) | drug sensitivity score (U2OS [15]) |
| --- | --- | --- | --- | --- | --- | --- | --- | --- | --- | --- | --- | --- | --- | --- | --- | --- | --- | --- | --- | --- | --- | --- | --- | --- | --- | --- | --- | --- | --- | --- | --- | --- | --- | --- | --- |
| CC(=O)OCC(=O)[C@@]1(OC(C)=O)[C@@H](C)C[C@H]2[C@@H]3C[C@H](F)C4=CC(=O)C=C[C@]4(C)[C@@]3(F)[C@@H](O)C[C@@]21C [diflorasone-diacetate] | 82.6% | 90.4% | 87.9% | 97.8% | 95.2% | 105% | 95.9% | 93.1% | 100% | 101% | 104% | 106% | 105% | 90.7% | 98.1% | 110% | 106% | 99% | 98.4% | 87.6% | 102% | 96.9% | 95.9% | 96.5% | 89.9% | > 10 µM | > 10 µM | > 10 µM | > 10 µM | > 10 µM | 0 | 0 | 0 | 0.2 | 0 |
| C/C(=C\C(=O)Nc1ccccc1C(=O)O)c1ccc2ccccc2c1 [BIBR-1532] | 97.6% | 98% | 94.9% | 110% | 118% | 101% | 102% | 98.2% | 108% | 98% | 105% | 99.9% | 97.5% | 103% | 105% | 94.1% | 100% | 103% | 98% | 95.8% | 93.8% | 96.9% | 95.5% | 93.3% | 103% | > 10 µM | > 10 µM | > 10 µM | > 10 µM | > 10 µM | 0 | 0 | 0 | 0 | 0 |
| O=C(Nc1cccc2c(=O)cc(-c3nnn[nH]3)oc12)c1ccc(OCCCCc2ccccc2)cc1 [pranlukast] | 95.7% | 95.6% | 104% | 101% | 99.9% | 102% | 111% | 93.1% | 96.8% | 88.9% | 99.6% | 94.4% | 93.8% | 97.1% | 96% | 94.1% | 91.3% | 94.6% | 99.1% | 86.7% | 96.7% | 97.2% | 94.3% | 98.6% | 95.2% | > 10 µM | > 10 µM | > 10 µM | > 10 µM | > 10 µM | 0 | 0 | 0 | 0 | 0 |
| CN1CCN(C(=O)c2cc3cc(Cl)ccc3[nH]2)CC1 | 98.1% | 104% | 92.5% | 116% | 94.8% | 110% | 89.7% | 106% | 93.7% | 93.8% | 97.3% | 96.3% | 98.6% | 100% | 99.8% | 103% | 107% | 102% | 89.9% | 109% | 99.9% | 100% | 104% | 103% | 95.6% | > 10 µM | > 10 µM | > 10 µM | > 10 µM | > 10 µM | 0 | 0 | 0 | 0 | 0 |
| O[C@H]([C@H](O)[C@@H]1CO1)[C@H]1CO1 [dianhydrogalactitol] | 99.4% | 101% | 104% | 90.8% | 91.1% | 103% | 107% | 99.3% | 95.4% | 94.2% | 97.6% | 96.9% | 93.2% | 97.2% | 99.9% | 97.4% | 95.8% | 101% | 104% | 95.7% | 99.1% | 104% | 97.2% | 100% | 100% | > 10 µM | > 10 µM | > 10 µM | > 10 µM | > 10 µM | 0 | 0 | 0 | 0 | 0 |
| CC(=O)N[C@@H](CSSC[C@H](NC(C)=O)C(=O)O)C(=O)O [D-7193] | 108% | 88.5% | 108% | 98.9% | 98% | 93.5% | 83.4% | 103% | 95.6% | 110% | 107% | 106% | 100% | 103% | 99.2% | 100% | 96.1% | 104% | 92% | 100% | 95.1% | 96.2% | 98.6% | 98.2% | 101% | > 10 µM | > 10 µM | > 10 µM | > 10 µM | > 10 µM | 0 | 0 | 0 | 0 | 0 |
| CC(=O)[C@]1(O)Cc2c(O)c3c(c(O)c2[C@@H](O[C@H]2C[C@H](N)[C@H](O)[C@H](C)O2)C1)C(=O)c1ccccc1C3=O [idarubicin] | 94.8% | 50.3% | 29.7% | 0% | 0.1% | 104% | 90.1% | 48.6% | 27.7% | 9.7% | 106% | 94% | 58.2% | 6.1% | 2.9% | 103% | 96.1% | 62.1% | 10.8% | 17.4% | 100% | 86.3% | 60.7% | 1% | 0% | 0.016 µM | 0.0921 µM | 0.12 µM | 0.117 µM | 0.128 µM | 32.2 | 21 | 22 | 20.7 | 22.2 |
| O=C(O)c1cc(O)c2c(c1)C(=O)c1cccc(O)c1C2=O [rhein] | 110% | 95.5% | 106% | 93.3% | 88.6% | 90% | 96.6% | 106% | 98.5% | 111% | 98.7% | 92.7% | 95.5% | 99.1% | 99.2% | 100% | 102% | 97.6% | 95.7% | 98.1% | 103% | 98.4% | 99% | 98.2% | 102% | > 10 µM | > 10 µM | > 10 µM | > 10 µM | > 10 µM | 0.2 | 0 | 0 | 0 | 0 |
| CN[C@@H]1[C@@H](O[C@H]2O[C@H](CO)[C@@H](N)[C@H](O)[C@H]2O)O[C@H]2C[C@@H](N)[C@@H](O[C@H]3[C@H](O)[C@@H](O)[C@H](N)C[C@@H]3N)O[C@@H]2[C@@H]1O [apramycin] | 106% | 98.1% | 107% | 99.3% | 97.5% | 97.8% | 99.6% | 100% | 91.5% | 74.8% | 102% | 95.3% | 93.2% | 99.9% | 102% | 98% | 89% | 104% | 104% | 92.9% | 105% | 100% | 92.8% | 104% | 99.9% | > 10 µM | – | > 10 µM | > 10 µM | > 10 µM | 0 | 2.1 | 0 | 0 | 0 |
| O=P1(N(CCCl)CCCl)NCCCO1 (stereo not given) [cyclophosphamide] | 91.9% | 98.9% | 91.5% | 99.8% | 105% | – | – | – | – | – | 97.6% | 99.8% | 99.4% | 98.2% | 94% | 100% | 100% | 95.6% | 86.7% | 98.6% | 102% | 102% | 101% | 95.5% | 99.2% | > 10 µM | – | > 10 µM | > 10 µM | > 10 µM | 0 | – | 0 | 0 | 0 |
| CON [methoxyamine] | 110% | 110% | 102% | 99.7% | 96.8% | – | – | – | – | – | 108% | 94.6% | 99.3% | 106% | 106% | 102% | 102% | 99.9% | 96.9% | 100% | 99.2% | 103% | 96.7% | 103% | 96.4% | > 10 µM | – | > 10 µM | > 10 µM | > 10 µM | 0 | – | 0 | 0 | 0 |
| O=C(O)CCCNC(=O)c1cccnc1 [pikamilone] | 107% | 113% | 99.8% | 110% | 94.6% | – | – | – | – | – | 102% | 105% | 102% | 102% | 98.4% | 99.8% | 98.3% | 98.4% | 95.6% | 99.8% | 106% | 97.4% | 103% | 99.4% | 104% | > 10 µM | – | > 10 µM | > 10 µM | > 10 µM | 0 | – | 0 | 0 | 0 |
| CCCCCCCCCCCCCCCCCCCCCC(=O)O [AGP-103] | 97.6% | 94.8% | 98.5% | 95.5% | 92.7% | – | – | – | – | – | 105% | 106% | 100% | 97.9% | 99.1% | 104% | 90.4% | 96.5% | 106% | 99.9% | 99.8% | 93.9% | 98.3% | 101% | 102% | > 10 µM | – | > 10 µM | > 10 µM | > 10 µM | 0 | – | 0 | 0 | 0 |
| COc1ccc(C2CC(c3c(O)cc(C)oc3=O)=NCCS2)c(OC)c1 (stereo not given) | 94.9% | 106% | 92.8% | 44.4% | 36.6% | 105% | 105% | 97.7% | 80.4% | 57% | 100% | 105% | 101% | 35.9% | 31% | 103% | 98.7% | 99.5% | 64.4% | 47.4% | 102% | 97% | 93.9% | 69.8% | 33.2% | 0.328 µM | – | 0.391 µM | 0.73 µM | 1.1 µM | 11.2 | 4.4 | 11.8 | 7.1 | 7.1 |
| COc1ccc2cc([C@H](C)C(=O)O)ccc2c1 [naproxen] | 106% | 103% | 104% | 100% | 99.4% | – | – | – | – | – | 109% | 97.8% | 98.2% | 101% | 100% | 95.1% | 101% | 102% | 94.9% | 95.3% | 101% | 102% | 98.4% | 96.8% | 102% | > 10 µM | > 10 µM | > 10 µM | > 10 µM | > 10 µM | 0 | 0 | 0 | 0 | 0 |
